From patent publication US8153821B2, “Compounds” (priority 2008, dated 2012)

Experiments:
[1] = test system: neuronal nicotinic receptors (α-BnTx insensitive); test: Multiple receptor screening assay, nicotinic receptor; assay type: binding; settings: single concentration of 10 μM
Description: (R)-3-((E)-2-(Pyrrolidin-3-yl)vinyl)-5-(tetrahydropyran-4-yloxy)pyridine or a salt thereof was tested for selectivity against a panel of 65 receptors.

CYP2C9 [2] = target: T1, CYP2C9 (Homo sapiens, UniProt P11712); assay type: in vitro ADME
T1 sequence (P11712 whole entry): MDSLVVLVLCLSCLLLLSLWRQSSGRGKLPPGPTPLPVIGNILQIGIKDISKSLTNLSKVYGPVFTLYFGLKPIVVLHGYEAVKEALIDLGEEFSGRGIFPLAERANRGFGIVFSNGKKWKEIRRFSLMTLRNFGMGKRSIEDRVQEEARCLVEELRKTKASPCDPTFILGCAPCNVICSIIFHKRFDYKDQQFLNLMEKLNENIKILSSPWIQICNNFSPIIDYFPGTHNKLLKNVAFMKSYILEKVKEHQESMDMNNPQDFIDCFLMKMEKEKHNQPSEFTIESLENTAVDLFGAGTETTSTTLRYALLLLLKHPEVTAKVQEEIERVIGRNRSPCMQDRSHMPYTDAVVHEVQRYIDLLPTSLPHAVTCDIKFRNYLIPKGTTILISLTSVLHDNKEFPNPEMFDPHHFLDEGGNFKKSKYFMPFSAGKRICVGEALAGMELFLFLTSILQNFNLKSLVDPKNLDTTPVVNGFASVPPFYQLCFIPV

CYP2C19 = CYP2C19 (Homo sapiens, UniProt P33261); test: biochemical; assay type: in vitro ADME
Chain of CYP2C19 (P33261 whole entry): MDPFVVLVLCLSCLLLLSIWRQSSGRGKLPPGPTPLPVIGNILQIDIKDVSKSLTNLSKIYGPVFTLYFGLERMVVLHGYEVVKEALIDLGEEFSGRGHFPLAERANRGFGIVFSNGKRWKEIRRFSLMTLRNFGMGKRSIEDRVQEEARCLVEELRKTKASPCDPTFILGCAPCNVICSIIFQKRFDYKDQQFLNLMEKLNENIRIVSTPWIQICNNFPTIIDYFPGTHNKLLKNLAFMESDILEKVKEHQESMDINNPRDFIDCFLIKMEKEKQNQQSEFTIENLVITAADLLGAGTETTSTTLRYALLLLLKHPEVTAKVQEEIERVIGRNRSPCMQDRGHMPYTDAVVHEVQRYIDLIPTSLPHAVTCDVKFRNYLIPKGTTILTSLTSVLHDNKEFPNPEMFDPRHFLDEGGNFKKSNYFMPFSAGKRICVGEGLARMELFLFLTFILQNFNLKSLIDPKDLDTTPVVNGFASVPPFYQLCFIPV
Description: (§1) Inhibition of CYP1A2, CYP2C9, CYP2C19, CYP2D6 and CYP3A4 catalytic activity by (R)-3-((E)-2-(pyrrolidin-3-yl)vinyl)-5-(tetrahydropyran-4-yloxy)pyridine or a slat thereof was assessed using a fluorogenic CYP assay. Probe substrates which fluoresce upon CYP catalyzed oxidation were used to evaluate the degree of inhibition of the test substrate. A single concentration of each probe substrate (at approximately the apparent Km value) and two different concentrations of (R)-3-((E)-2-(pyrrolidin-3-yl)vinyl)-5-(tetrahydropyran-4-yloxy)pyridine hemigalactarate (2 and 20 μM) were tested in duplicate. Fluorescence intensity at selected wavelengths was used as a measure of enzyme activity. Decreased fluorescence in the presence of (R)-3-((E)-2-(pyrrolidin-3-yl)vinyl)-5-(tetrahydropyran-4-yloxy)pyridine or a sat thereof was an indication of inhibition. […] Duplicate samples were run alongside the positive and negative controls. Incubation of test samples was performed at 37° C. Experimental parameters are outlined in Table 2.

CYP2C9 [3] = target: T1, CYP2C9; test: biochemical; assay type: in vitro ADME
Description: as §1

CYP3A4 = CYP3A4 (Homo sapiens, UniProt P08684); test: biochemical; assay type: in vitro ADME
Chain of CYP3A4 (P08684 whole entry): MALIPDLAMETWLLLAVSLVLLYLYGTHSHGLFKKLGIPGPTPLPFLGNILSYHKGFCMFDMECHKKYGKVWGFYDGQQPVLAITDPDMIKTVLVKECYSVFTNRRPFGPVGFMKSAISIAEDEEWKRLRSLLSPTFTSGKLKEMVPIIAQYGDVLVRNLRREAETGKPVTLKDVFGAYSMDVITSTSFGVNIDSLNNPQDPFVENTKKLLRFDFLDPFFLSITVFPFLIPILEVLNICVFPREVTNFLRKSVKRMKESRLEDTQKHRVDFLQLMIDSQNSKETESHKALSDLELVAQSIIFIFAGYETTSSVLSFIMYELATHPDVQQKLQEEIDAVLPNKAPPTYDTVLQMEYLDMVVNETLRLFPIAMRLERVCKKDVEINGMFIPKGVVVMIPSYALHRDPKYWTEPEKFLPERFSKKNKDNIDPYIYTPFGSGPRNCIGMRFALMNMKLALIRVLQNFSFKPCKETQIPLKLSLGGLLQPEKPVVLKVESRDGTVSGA
Description: as §1

CYP2D6 = CYP2D6 (Homo sapiens, UniProt P10635); test: biochemical; assay type: in vitro ADME
Chain of CYP2D6 (P10635 whole entry): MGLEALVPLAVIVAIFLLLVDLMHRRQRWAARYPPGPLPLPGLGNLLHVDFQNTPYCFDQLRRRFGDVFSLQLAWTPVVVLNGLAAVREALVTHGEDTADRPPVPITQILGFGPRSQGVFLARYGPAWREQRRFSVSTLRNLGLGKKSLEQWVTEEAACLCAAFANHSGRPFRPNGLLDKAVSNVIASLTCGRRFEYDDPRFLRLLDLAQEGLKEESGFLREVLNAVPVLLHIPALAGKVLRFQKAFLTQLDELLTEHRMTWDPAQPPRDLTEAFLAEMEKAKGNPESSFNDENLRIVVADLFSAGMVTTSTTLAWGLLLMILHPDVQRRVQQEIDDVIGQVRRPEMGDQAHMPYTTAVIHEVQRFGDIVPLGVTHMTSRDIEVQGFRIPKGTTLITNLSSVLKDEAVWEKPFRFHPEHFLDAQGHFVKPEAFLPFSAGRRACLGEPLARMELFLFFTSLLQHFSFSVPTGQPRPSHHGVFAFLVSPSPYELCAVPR
Description: as §1

CYP1A2 = CYP1A2 (Homo sapiens, UniProt P05177); test: biochemical; assay type: in vitro ADME
Chain of CYP1A2 (P05177 whole entry): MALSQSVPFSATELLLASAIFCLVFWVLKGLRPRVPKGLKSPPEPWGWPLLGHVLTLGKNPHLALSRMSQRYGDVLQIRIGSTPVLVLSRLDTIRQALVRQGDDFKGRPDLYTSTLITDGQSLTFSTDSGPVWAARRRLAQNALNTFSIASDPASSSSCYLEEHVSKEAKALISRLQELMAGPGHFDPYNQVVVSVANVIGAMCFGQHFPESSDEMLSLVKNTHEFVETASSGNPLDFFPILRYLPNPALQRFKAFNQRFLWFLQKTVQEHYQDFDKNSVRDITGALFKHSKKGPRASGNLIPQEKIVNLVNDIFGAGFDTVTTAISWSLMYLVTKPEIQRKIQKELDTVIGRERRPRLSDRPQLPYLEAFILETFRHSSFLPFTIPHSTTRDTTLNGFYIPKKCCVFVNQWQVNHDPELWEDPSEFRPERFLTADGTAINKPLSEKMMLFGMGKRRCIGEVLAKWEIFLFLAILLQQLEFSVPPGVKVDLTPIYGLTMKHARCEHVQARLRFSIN
Description: as §1

normal rats = test: Novel object recognition (NOR); assay type: in vivo, rat; settings: for NOR duration of statistically significant effect after dosing: dose 0.004 μM/kg (0.004 μmol/kg oral), FIG. 2
Description: Memory was assessed by using a three-trial novel object recognition test (Luine et al., Pharm. Biochem. Behav. 74, 213-220 (2002)). On the first day (exploratory trial), rats were allowed to explore an open arena (44.5×44.5×30.5 cm) for 6 min. On the second day (acquisition trial), rats were allowed to explore the same arena in the presence of two identical objects (both object A) for 3 min. On the third day (retention or recall trial), performance was evaluated by allowing the same animal to re-explore the arena for 3 min in the presence of two different objects: the familiar object A and a novel object B. An inter-trial interval of 24 h was imposed between the three NOR trials. Recognition memory was assessed by comparing the time spent exploring a novel (object B) versus a familiar (object A) object during the recall trial. Recognition index was assessed for each animal and expressed as a ratio ((time B/time A+time B)×100).
(R)-3-((E)-2-(Pyrrolidin-3-yl)vinyl)-5-(tetrahydropyran-4-yloxy)pyridine or a salt thereof improved long-term visual episodic/declarative memory as assessed by novel object recognition (NOR) task following oral dosing in normal rats. […] In the two “recall only” sessions; subset of animals were orally dosed with water on day 1 (i.e., exploratory session) and day 2 (i.e., acquisition session) and then orally dosed either with 1.1 μmol/kg (R)-3-((E)-2-(pyrrolidin-3-yl)vinyl)-5-(tetrahydropyran-4-yloxy)pyridine or a salt thereof (left panel) or 0.04 μmol/kg (right panel) on day 3 (i.e., recall session). […] In the Figure, the dashed line at 65% denotes subjective criteria for biological cognitive enhancing activity. *P<0.05.
(R)-3-((E)-2-(Pyrrolidin-3-yl)vinyl)-5-(tetrahydropyran-4-yloxy)pyridine or a salt thereof was evaluated for its duration of effect in the NOR task in normal rats. […] In the Figure, the dashed line at 65% denotes subjective criteria for biological cognitive enhancing activity (*P<0.05).

[4] = target: T2, rat native α4β2 receptors (Rattus norvegicus, UniProt P09483+P12390); test: Radioligand binding, rat native α4β2 in rat cortical membranes
T2 construct: rat native α4β2 receptors in rat cortical membranes; from tissue; host or cells: rat cerebral cortex (female Sprague-Dawley)
T2 sequence (P09483 31-630): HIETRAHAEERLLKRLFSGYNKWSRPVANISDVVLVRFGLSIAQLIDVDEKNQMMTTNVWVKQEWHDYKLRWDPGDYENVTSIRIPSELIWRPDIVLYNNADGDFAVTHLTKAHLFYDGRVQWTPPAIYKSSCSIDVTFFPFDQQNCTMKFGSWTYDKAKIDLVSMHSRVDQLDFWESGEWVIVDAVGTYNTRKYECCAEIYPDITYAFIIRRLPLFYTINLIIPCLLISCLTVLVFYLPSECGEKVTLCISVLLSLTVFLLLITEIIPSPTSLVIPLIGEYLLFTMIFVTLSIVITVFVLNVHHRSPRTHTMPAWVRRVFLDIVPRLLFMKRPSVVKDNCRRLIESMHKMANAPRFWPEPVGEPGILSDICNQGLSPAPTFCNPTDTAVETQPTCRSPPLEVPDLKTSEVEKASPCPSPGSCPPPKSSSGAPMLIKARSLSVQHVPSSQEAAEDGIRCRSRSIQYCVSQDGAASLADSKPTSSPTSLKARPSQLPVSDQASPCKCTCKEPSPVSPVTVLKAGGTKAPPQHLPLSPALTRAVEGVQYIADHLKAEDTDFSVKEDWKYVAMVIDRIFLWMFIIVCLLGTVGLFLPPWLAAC
T2 sequence (P12390 25-500): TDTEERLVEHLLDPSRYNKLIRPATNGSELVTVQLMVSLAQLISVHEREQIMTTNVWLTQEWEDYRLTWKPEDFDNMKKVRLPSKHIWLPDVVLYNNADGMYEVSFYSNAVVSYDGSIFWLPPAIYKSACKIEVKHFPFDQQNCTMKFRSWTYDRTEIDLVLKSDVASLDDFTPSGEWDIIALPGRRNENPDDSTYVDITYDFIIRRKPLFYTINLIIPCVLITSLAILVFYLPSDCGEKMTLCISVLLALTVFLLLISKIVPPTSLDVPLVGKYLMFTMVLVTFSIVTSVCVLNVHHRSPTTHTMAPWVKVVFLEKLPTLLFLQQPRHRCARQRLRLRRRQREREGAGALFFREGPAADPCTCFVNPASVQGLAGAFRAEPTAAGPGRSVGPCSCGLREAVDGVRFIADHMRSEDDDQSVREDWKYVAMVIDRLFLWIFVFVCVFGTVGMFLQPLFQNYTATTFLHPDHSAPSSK
Description: Preparation of membranes from rat cortex: Rats (female, Sprague-Dawley), weighing 150-250 g, were maintained on a 12 h light/dark cycle and were allowed free access to water and food supplied by PMI Nutrition International, Inc. Animals were anesthetized with 70% CO2, and then decapitated. Brains were removed and placed on an ice-cold platform. The cerebral cortex was removed and placed in 20 volumes (weight:volume) of ice-cold preparative buffer (137 mM NaCl, 10.7 mM KCl, 5.8 mM KH2PO4, 8 mM Na2HPO4, 20 mM HEPES (free acid), 5 mM iodoacetamide, 1.6 mM EDTA, pH 7.4); PMSF, dissolved in methanol to a final concentration of 100 μM, was added and the suspension was homogenized by Polytron. […]
Assay. […] Protein concentrations were determined using a Pierce BCA Protein Assay Kit, with bovine serum albumin as the standard (Pierce Chemical Company, Rockford, Ill.).
Incubation was terminated by rapid filtration on a multi-manifold tissue harvester (Brandel, Gaithersburg, Md.) using GF/B filters presoaked in 0.33% polyethyleneimine (w/v) to reduce non-specific binding. […] Filters were then counted to determine radioactivity bound to the membranes by liquid scintillation counting (2200CA Tri-Carb LSC, Packard Instruments, 50% efficiency or Wallac Trilux 1450 MicroBeta, 40% efficiency, Perkin Elmer).
Data were expressed as disintegrations per minute (DPMs). […]

## C(=C\[C@H]1CCNC1)/c1cncc(OC2CCOCC2)c1 [Compound A, (R)-3-((E)-2-(pyrrolidin-3-yl)vinyl)-5-(tetrahydropyran-4-yloxy)pyridine]
[1]
  inhibition of binding of labelled ligand: 99%
CYP2C9 [2]
  time-dependent inhibition of CYP2C9: no evidence of time-dependent inhibition
CYP2C19
  IC50: > 20 µM
CYP2C9 [3]
  IC50: > 20 µM
CYP3A4
  IC50: > 20 µM
CYP2D6
  IC50: > 20 µM
CYP1A2
  IC50: > 20 µM
Normal rats; 0.004 μmol/kg oral, 0.5 h after dosing
  NOR recognition index: 72±2%
Normal rats; 0.004 μmol/kg oral, 6 h after dosing
  NOR recognition index: 70±3%
Normal rats; 0.004 μmol/kg oral, 8 h after dosing
  NOR recognition index: 70±4%
Normal rats; 0.04 μmol/kg oral, normal rats, 24 h after acquisition trial
  NOR recognition index: 71±2%
Normal rats; 1.1 μmol/kg oral, normal rats, 24 h after acquisition trial
  NOR recognition index: 61±3%
Normal rats; FIG. 1
  NOR lowest dose with statistically significant effect: ≥ 0.004 µM/kg
Normal rats
  NOR duration of statistically significant effect after dosing: ≤ 8 h
Normal rats; listed as (R)-3-((E)-2-(pyrrolidin-3-yl)vinyl)-5-(tetrahydropyran-4-yloxy)pyridine
  NOR duration of statistically significant effect after dosing: up to 8 h
Normal rats; listed as Formula I
  NOR duration of statistically significant effect after dosing: ≤ 8 h
Normal rats; oral, follow-up NOR study, rats
  NOR minimum effect dose (MED): 0.004 µmol/kg
Normal rats; single oral administration on day 3, 1.1 μmol/kg or 0.04 μmol/kg
  NOR recognition index, recall only sessions: significantly above controls
[4]
  Ki: 0.004 µM
